The record followed here is ChEMBL document CHEMBL1128558, “Effect of bridge region variation on antifolate and antitumor activity of classical 5-substituted 2,4-diaminofuro[2,3-d]pyrimidines” (J Med Chem, 1995).

Data set [1] deals with A253 cell line. Briefly: The compound was tested for Growth inhibition of the human squamous cell carcinoma A253 cells. Format: functional, cell-based.
Data set [2] has as its system CCRF-CEM. The data set is described as follows: Compound was tested for Growth inhibition of the Human T-lymphoblastic Leukemia cell line CCRF-CEM. Format: functional, cell-based.
The test system of data set [3] is CCRF-CEM. Briefly: The compound was tested for Growth inhibition of Methotrexate-resistant human T-lymphoblastic leukemia cell line CCRF-CEM(sub line R30dm). Format: functional, cell-based.
The test system of data set [4] is FaDu. Briefly: Protection by 10 uM LV(leucovorin) against the growth inhibition of FaDu cells induced by the compound. Format: functional, Homo sapiens. Also on record: scale not given: the % may be the effect or the level left.
Data set [5] concerns FaDu. Briefly: Protection by 40 uM TdR(thymidine) against the growth inhibition of FaDu cells induced by the compound. Format: functional, Homo sapiens. Also on record: scale not given: the % may be the effect or the level left.
Data set [6] concerns FaDu. The data set is described as follows: Protection by 50 uM Hx (Hypoxanthine) against the growth inhibition of FaDu cells induced by the compound. Format: functional, Homo sapiens. Also on record: scale not given: the % may be the effect or the level left.
For data set [7], the system named is FaDu. The data set is described as follows: Protection by combination of 50 uM Hx (Hypoxanthine) + 40 uM TdR(thymidine) against the growth inhibition of FaDu cells induced by the compound. Format: functional, Homo sapiens. Also on record: scale not given: the % may be the effect or the level left.
Data set [8] deals with FaDu. The data set is described as follows: The compound was tested for growth inhibition against FaDu cells. Also on record: scale not given: the % may be the effect or the level left. Format: functional, Homo sapiens.
The test system of data set [9] is FaDu. The data set is described as follows: The compound was tested for Growth inhibition of the human squamous cell carcinoma FaDu cells. Format: functional, cell-based.
Data set [10] concerns the target T1, Thymidylate synthase (Lactobacillus casei, UniProt P00469).
T1 sequence (P00469 whole entry): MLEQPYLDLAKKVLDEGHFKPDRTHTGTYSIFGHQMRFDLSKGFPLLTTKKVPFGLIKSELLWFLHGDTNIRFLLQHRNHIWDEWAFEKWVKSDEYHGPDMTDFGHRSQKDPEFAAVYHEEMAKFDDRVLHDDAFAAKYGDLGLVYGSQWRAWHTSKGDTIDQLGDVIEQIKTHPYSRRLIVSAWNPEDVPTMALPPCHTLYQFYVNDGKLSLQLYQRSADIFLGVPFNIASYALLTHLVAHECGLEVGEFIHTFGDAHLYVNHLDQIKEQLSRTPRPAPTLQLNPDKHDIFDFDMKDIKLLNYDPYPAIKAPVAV
Briefly: Inhibitory concentration against Lactobacillus casei TS (Thymidylate synthase). Also on record: species or system Lacticaseibacillus casei.

Data set [11] in a line: Ratio of Vmax to Km.
The target in data set [12] is T2, Dihydrofolate reductase (Homo sapiens, UniProt P00374).
T2 sequence (P00374 whole entry): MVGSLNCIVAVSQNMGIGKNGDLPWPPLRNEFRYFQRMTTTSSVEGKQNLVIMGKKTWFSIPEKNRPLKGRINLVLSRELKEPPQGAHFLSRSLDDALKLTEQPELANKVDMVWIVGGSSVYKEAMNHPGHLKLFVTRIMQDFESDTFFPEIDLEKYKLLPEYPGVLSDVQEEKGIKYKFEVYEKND
The data set is described as follows: Inhibitory concentration against recombinant human DHFR(Dihydro folate reductase).

Data set [13] concerns the target Thymidylate synthase (Homo sapiens, UniProt P04818). The data set is described as follows: Inhibitory concentration against recombinant human TS (Thymidylate synthase).
Data set [14] has as its target Dihydrofolate reductase (Lactobacillus casei, UniProt P00381).
The subject of data set [15] is CCRF-CEM. The data set is described as follows: he compound was tested for Growth inhibition of the Human T-lymphoblastic Leukemia cell line CCRF-CEM. Format: functional, cell-based.
Substrate in data set [16]: Nc1nc(N)c2c(CCc3ccc(C(=O)N[C@@H](CCC(=O)O)C(=O)O)cc3)coc2n1
The data set is described as follows: (§1) Substrate activity against CCRF-CEM human leukemia cell Folyl-polyglutamate synthase.

Substrate in data set [17]: Nc1nc(N)c2nc(CNc3ccc(C(=O)N[C@@H](CCC(=O)O)C(=O)O)cc3)cnc2n1
The description is as §1.

Substrate in data set [18]: Nc1nc(N)c2c(CCc3ccc(C(=O)N[C@@H](CCC(=O)O)C(=O)O)cc3)coc2n1
Briefly: (§2) Vmax value for substrate activity against CCRF-CEM human leukemia cell Folyl-polyglutamate synthase. Format: cell-based.

Substrate in data set [19]: Nc1nc(N)c2c(CNCc3ccc(C(=O)N[C@@H](CCC(=O)O)C(=O)O)cc3)coc2n1
The data set is described as §2. Format: cell-based.

Substrate in data set [20]: Nc1nc(N)c2nc(CNc3ccc(C(=O)N[C@@H](CCC(=O)O)C(=O)O)cc3)cnc2n1
The description is as §2. Format: cell-based.

For orientation: EC50 means the midpoint of the concentration-response curve. A word on the IC50: it is the point on the concentration scale where inhibition reaches its midpoint. In general, Km refers to the substrate concentration at which the rate is half of its maximum.

Dihydrofolate reductase (Lactobacillus casei, UniProt P00381), sequence (P00381 whole entry): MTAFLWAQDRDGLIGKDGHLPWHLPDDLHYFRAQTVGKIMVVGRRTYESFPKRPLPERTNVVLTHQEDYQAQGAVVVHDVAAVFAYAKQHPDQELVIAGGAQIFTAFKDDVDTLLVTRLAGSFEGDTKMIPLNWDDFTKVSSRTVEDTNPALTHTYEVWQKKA
Thymidylate synthase (Homo sapiens, UniProt P04818), sequence (P04818 whole entry): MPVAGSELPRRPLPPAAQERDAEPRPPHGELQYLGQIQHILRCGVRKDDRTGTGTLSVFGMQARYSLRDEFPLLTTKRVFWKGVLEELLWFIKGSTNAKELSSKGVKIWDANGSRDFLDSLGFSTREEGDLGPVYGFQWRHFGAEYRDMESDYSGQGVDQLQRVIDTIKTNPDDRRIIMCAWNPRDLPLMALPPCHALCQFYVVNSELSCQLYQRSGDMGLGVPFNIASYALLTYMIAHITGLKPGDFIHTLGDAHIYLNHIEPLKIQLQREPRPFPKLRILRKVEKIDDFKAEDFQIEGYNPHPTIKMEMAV

As for `Nc1nc(N)c2c(CCc3ccc(C(=O)N[C@@H](CCC(=O)O)C(=O)O)cc3)coc2n1`, the EC50 in data set [1] worked out at 540 nM; in [2], 290 nM; in data set [3], 4250 nM; in [9] it was 180 nM. In addition, the Control in data set [4] is recorded as 105%; in [5], 14%; in data set [6], 4%; in [7], 107%; in [8], 7%. In data set [10], the IC50 was determined as 200000 nM. For the same molecule, the Ratio in [11] turned out to be 0.07.
`CN(Cc1cnc2nc(N)nc(N)c2n1)c1ccc(C(=O)N[C@@H](CCC(=O)O)C(=O)O)cc1` [METHOTREXATE]: the EC50 was found to be 13 nM in data set [1] and 17 nM in data set [9]. The Control stood at 96% in data set [4], 8% in data set [5], 6% in data set [6] and 2% in data set [8].
In the case of `Nc1nc(N)c2c(CNc3ccc(C(=O)N[C@@H](CCC(=O)O)C(=O)O)cc3)coc2n1`, the IC50 is 450 nM in data set [12], greater than 200000 nM in data set [10], greater than 200000 nM in data set [13] and 560 nM in data set [14].
For `Nc1nc(N)c2nc(CNc3ccc(C(=O)N[C@@H](CCC(=O)O)C(=O)O)cc3)cnc2n1`, the Ratio in data set [11] turned out to be 0.21.
The molecule `Nc1nc(N)c2c(CNCc3ccc(C(=O)N[C@@H](CCC(=O)O)C(=O)O)cc3)coc2n1` showed an EC50 in data set [15] of 48000 nM. For the same molecule, the IC50 in data set [12], in [10] and in data set [14] was greater than 200000 nM in each case.

B1: Folylpolyglutamate synthase, mitochondrial (Homo sapiens), Q05932 (protein)
chain: MSRARSHLRAALFLAAASARGITTQVAARRGLSAWPVPQEPSMEYQDAVRMLNTLQTNAGYLEQVKRQRGDPQTQLEAMELYLARSGLQVEDLDRLNIIHVTGTKGKGSTCAFTECILRSYGLKTGFFSSPHLVQVRERIRINGQPISPELFTKYFWRLYHRLEETKDGSCVSMPPYFRFLTLMAFHVFLQEKVDLAVVEVGIGGAYDCTNIIRKPVVCGVSSLGIDHTSLLGDTVEKIAWQKGGIFKQGVPAFTVLQPEGPLAVLRDRAQQISCPLYLCPMLEALEEGGPPLTLGLEGEHQRSNAALALQLAHCWLQRQDRHGAGEPKASRPGLLWQLPLAPVFQPTSHMRLGLRNTEWPGRTQVLRRGPLTWYLDGAHTASSAQACVRWFRQALQGRERPSGGPEVRVLLFNATGDRDPAALLKLLQPCQFDYAVFCPNLTEVSSTGNADQQNFTVTLDQVLLRCLEHQQHWNHLDEEQASPDLWSAPSPEPGGSASLLLAPHPPHTCSASSLVFSCISHALQWISQGRDPIFQPPSPPKGLLTHPVAHSGASILREAAAIHVLVTGSLHLVGGVLKLLEPALSQ
In the case of B1, the Km in data set [16] was 8.5 µM; in [17] it was 4.8 µM. The Vmax is 0.65 in data set [18], 0.6 in [19] and 1 in data set [20].
